Data published in article PMC6961810 (2019).

Tests used:
[1] = test system: wt-mt (RNA, rRNA) GGCGUCACCCUCCUC/GAGGAGACAAGUCGCC; test: fluorescence titration; settings: 150 mM NaCl, 3 mM Na2EDTA; apparent; 10 mM HEPES pH 7.4; 1 μM RNA
[2] = test system: mut-mt (RNA, rRNA) GGCGUCACCCUCCUC/GAGGAGGCAAGUCGCC; test: fluorescence titration; settings: 150 mM NaCl, 3 mM Na2EDTA; apparent; 10 mM HEPES pH 7.4; 1 μM RNA

Kd [1] [µM]	Kd [2] [µM]	SMILES
12.8 ± 2.8	8.6 ± 2.1	CCO[C@H]1[C@H](O)[C@@H](N)[C@@H](O[C@H]2[C@H](O[C@@H]3O[C@H](CO)[C@@H](O[C@H]4O[C@@H](CN)[C@@H](O)[C@H](O)[C@H]4N)[C@H]3O)[C@@H](O)[C@H](N)C[C@@H]2N)O[C@@H]1CO
26.9 ± 4.7	5.8 ± 1.8	CCC[C@H]1[C@H](O)[C@@H](N)[C@@H](O[C@H]2[C@H](O[C@@H]3O[C@H](CO)[C@@H](O[C@H]4O[C@@H](CN)[C@@H](O)[C@H](O)[C@H]4N)[C@H]3O)[C@@H](O)[C@H](N)C[C@@H]2N)O[C@@H]1CO
1.1 ± 0.5	0.1 ± 0.02	NC[C@@H]1O[C@H](O[C@H]2[C@@H](O)[C@H](O[C@@H]3[C@@H](O)[C@H](N)C[C@H](N)[C@H]3O[C@H]3O[C@H](CN)[C@@H](O)[C@H](O)[C@H]3N)O[C@@H]2CO)[C@H](N)[C@@H](O)[C@@H]1O
6.5 ± 0.9	2.8 ± 0.5	NC[C@@H]1O[C@H](O[C@H]2[C@@H](O)[C@H](O[C@@H]3[C@@H](O)[C@H](N)C[C@H](N)[C@H]3O[C@H]3O[C@H](CO)[C@@H](O)[C@H](O)[C@H]3N)O[C@@H]2CO)[C@H](N)[C@@H](O)[C@@H]1O
